Experimental data from patent US20260027073A1, “USE OF SMALL-MOLECULE COMPOUND HAVING NAPHTHYLAMINE STRUCTURE” (HANGZHOU PHECDAMED CO., LTD., priority 2023, published 2026).

What was measured:
[1] = system: MRL/lpr mice; experiment: Lupus nephritis in MRL/lpr mice; format: in vivo
Experimental: The 10-week-old female MRL/lpr mice were fed in an SPF environment with a light-dark cycle of 12 h and the temperature maintained at 24-26° C. The mice were randomly divided into three groups according to their body weights, namely, the model group (Control, n=8, 0.5% CMC-Na by oral gavage), TJ01-013 10 mg/kg treatment group (10 mg/kg, n=8, 10 mg/kg TJ01-013 by oral gavage), TJ01-013 30 mg/kg treatment group (30 mg/kg, n=8, 30 mg/kg TJ01-013 by oral gavage), the animals were adaptively fed for one week, and were administered every day starting from 11th week, and the animals were monitored for the concentration of randomized urinary proteins and urinary creatinine of the mice in each group every 2 weeks starting from week 11, the mouse urine protein to creatinine concentration ratio (uPCR) was calculated. The animals were administered for a total of 10 weeks, and blood was collected from the orbits at the end of administration and serum was collected. Serum creatinine, urea nitrogen, serum ANA and anti-dsDNA concentrations were detected.
Urine protein and urinary creatinine levels were detected by utilizing Caumas Brilliant Blue staining.
Serum creatinine and urea nitrogen were detected by biochemical analyzer.
Serum ANA and anti-dsDNA levels were detected by ELISA.
Kidney tissue was placed in a homogenizer and minced into pieces thoroughly with clean scissors; 400 μl of lysate was added to the homogenizer, homogenized and then placed on ice, and the grinding was repeated several times on ice until the kidney tissue was ground as thoroughly as possible; after 30 min of lysis, the lysate was transferred to a 1.5 ml centrifuge tube with a pipette, and then centrifuged for 10 min at 12,000 rpm under the condition of 4° C., and the supernatant was taken and stored at −20° C. Inflammatory factors TNFα and IL-6 in kidney tissue proteins were detected using ELISA.

[2] = system: myocardial infarction rats; experiment: Myocardial infarction by coronary artery ligation; format: in vivo, SD rats; conditions: TJ01-013 30 mg/kg, Entresto 10 mg/kg, oral, 4 weeks
Experimental: 180 g-200 g SD rats were anesthetized by chloral hydrate after fasting for 12 h, the hair from the mandible to the upper part of the abdominal cavity and the ventral surfaces of the limbs was removed cleanly, and they were fixed on the surgical table, firstly, a small incision of about 1.5 cm was made in the neck with a scalpel, and then the subcutaneous muscle layer was bluntly separated with surgical scissors to expose the trachea, and then the tracheal tube was intubated and connected to the animal respiratory machine. After sterilizing with iodophor, the skin was cut on the left side of the chest between the 3rd and 4th ribs, and the muscles were bluntly separated to expose the ribs. The 3rd rib was cut with surgical scissors, hemostatic forceps were used to clamp and break the cut rib, and an eyelid opener was placed to peel the pericardium. After the pericardium was cut, a cotton swab moistened with saline was used to gently pivot the heart to locate the left auricle and coronary arteries. A threaded suture needle was clamped with a microscopic needle holder, and passed through the myocardium from right to left at 2-3 mm below the left auricle to ligate the coronary artery. At the end of the ligation, the organs in the thoracic cavity were recovered with saline-soaked cotton swabs, and figure-of-eight sutures were applied to the third and fourth ribs. After the rib layer suture was completed, subcutaneous muscle layering suture was performed, and the skin was finally sutured. After dialing out the tracheal tube, the rats were closely observed whether they had spontaneous respiration or not, and if there was no respiration they should be immediately pressed on the chest cavity for cardiopulmonary resuscitation. The electrocardiograph was connected to measure the postoperative electrocardiogram. […] The drug was administered orally by gavage in a volume of 10 ml/kg, and the frequency of administration was once a day for 4 weeks, and then the rats were anesthetized for cardiac ultrasound.
The rats were anesthetized by intraperitoneal injection of sodium pentobarbital 40 mg/kg, and the limbs were fixed on a wooden board in supine position, and the board was tilted to the left at 30 degrees. The chest was shaved and a II lead ECG was connected. A ULTRAMARK 9 ultrasonic diagnostic instrument from ATL, USA was used with a wide bandwidth line array probe with a frequency of 10 MHz-5 MHz. The Doppler detection frequency was 6.0 MHz, the length of the probe was 38 mm, the gain of the instrument was fixedly set as 50 dB in the experiment, and the depth of the image was adjusted to 2.5 cm. The probe was placed on the left side of the sternum at 10-30 degrees from the midline of the sternum to display the parasternal left ventricular long-axis view, and the probe was rotated clockwise by 90 degrees to display the left ventricular view. Doppler flow measurements of the mitral and aortic valves were performed in the parasternal left ventricular long-axis view and the pulmonary artery long-axis view. Ultrasound measurement indexes included left ventricular end-diastolic internal diameter (LVDd), end-systolic internal diameters (LVDs), left ventricular ejection fraction EF, left ventricular short-axis shortening rate FS, and infarct size.

[3] = system: LPS-induced sepsis in mice; experiment: LPS-induced sepsis survival; format: in vivo, C57 mice; conditions: 8th day; 10 mg/kg intraperitoneal once a day; LPS alone about 20%; FIG. 33
Experimental: A constructed preclinical sepsis model is a LPS-induced sepsis in mice. Injection of purified LPS into mice by intraperitoneal route or intravenous route can lead to activation of the innate immune system and simulate fulminant Gram-negative bacterial infections, the specific modeling method is as follows: 20-25 g C57 mice were selected, and 20 mg/kg LPS was injected intraperitoneally according to the body weight (the LPS was dissolved with PBS), and the experiment was divided into three groups, a model control group (LPS), a positive control treatment group (prednisone, 10 mg/kg), TJ01-013 treatment group (TJ01-013, 10 mg/kg), the mode of administration was intraperitoneal injection, the volume of administration was 5 ml/kg, the frequency of administration was once a day, and the biological deaths and changes in body weights of the mice were observed and recorded every day, and the mice were regarded as physiologically dead if their body weights decreased by 20% or more compared with that before the administration of LPS. Survival curves were plotted based on deaths observed up to 8 days after administration.

## O=C(O)C[S+]([O-])c1cc(NS(=O)(=O)c2ccc(Br)cc2)c2ccccc2c1O (stereo not shown) [I-1]
[1]; 10 weeks of administration, 10 and 30 mg/kg groups, FIG. 74
  urine protein to creatinine concentration ratio (uPCR): significantly lower
[1]; vs model group, FIG. 75
  serum creatinine level: significantly decreased
  serum urea nitrogen level: significantly decreased
[1]; vs model group, FIG. 76
  serum ANA level: significantly decreased
[1]; vs model group, FIG. 77
  serum dsDNA level: significantly decreased
[1]; vs model group, FIG. 78
  IL-6 level in kidney tissues: significantly reduced
  TNFα level in kidney tissues: significantly reduced
[2]; FIG. 37
  infarct size: reduced
[2]; FIG. 38
  left ventricular end-diastolic diameter (LVDd): no significant effect
[2]; FIG. 39
  end-systolic diameter (LVDs): did not have a significant effect
[2]; FIG. 40
  left ventricular ejection fraction EF: significantly increased
[2]; FIG. 41
  left ventricular short-axis fractional shortening FS: significantly increased
[3]
  survival rate: 80%
